Square brackets hold non-standard residues; d marks the D form. Peptide text beside a SMILES is read from it. Phe(3-F) = N[C@@H](Cc1cccc(F)c1)C(=O)O; hPhe = N[C@@H](CCc1ccccc1)C(=O)O; Abu = CC[C@H](N)C(=O)O; azaGly = NNC(=O)O
Target: T1, Human liver cathepsin L (Homo sapiens, UniProt P07711)
T1 construct: Human liver cathepsin L (Enzyme System Products, Catl-1); purchased Enzyme System Products Catl-1; host or cells: human liver
Assay: Human liver cathepsin L assay
Type: biochemical
Description: Human Liver Catheosin L Assay
Using this assay, the selectivity of a compound of the invention for hDPP-I over human cathepsin L was determined, using a fluorogenic substrate.
Human liver cathepsin L (Enzyme System Products, Catl-1; 5 μL of a 1.61 μU/IμL stock) was solubilized in 2500 μL enzyme buffer. Prior to running experiment, 1 μL 0.5 M DTT/100 μL enzyme Solution was added. inoubated for 5 minutes on ice then added to reaction mixture.
Z-Phe-ARG-AFC*TFA (Enzyme System Products AF052; 15.6 mg) was dissolved in 1 mL DMSO, giving a 20 mM solution.
The assay was performed in 96-well plates. 50 μL assay buffer was added to the well followed by 25 μL reference inhibitor (cystatin, stock 1 mg/mL, diluted with assay buffer to give 25 nM in assay) or a compound of the invention (diluted with assay buffer to give 10 μM in the assay). Then 25 μL (80 nU) enzyme was added, and 1 min. later (at 37° C.) 100 μL substrate (10 μM in the assay) was added. The excitation wavelength was 400 nm, and the emission was measured at 505 nm for 10-20 minutes at 37° C. Each measurement was made in duplicate. In the software (SOFTmax Pro) used for data collection from the fluorometer (Molecular Devices: Gemini XS), it was ensured that the measured slopes were linear (R^2>0.99). Data were exported to GraphPad Prism and nonlinear regression was performed using the option Sigmoidal dose-response (variable slope).

T1 sequence (P07711 114-333): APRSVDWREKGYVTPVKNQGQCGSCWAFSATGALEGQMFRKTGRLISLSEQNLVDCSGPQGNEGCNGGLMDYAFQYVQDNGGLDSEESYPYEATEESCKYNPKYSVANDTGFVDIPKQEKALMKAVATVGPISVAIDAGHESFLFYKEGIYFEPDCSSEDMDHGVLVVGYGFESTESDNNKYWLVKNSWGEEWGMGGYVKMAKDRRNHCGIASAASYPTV

In the case of `CC[C@H](N)C(=O)NNC(=O)N[C@@H](CCc1ccccc1)C(=O)N[C@@H](Cc1cccc(F)c1)C(N)=O` [Example 11, 1-(2S-2-Aminobutanoyl)-4-[2S-N-[2S-3-(m-fluorophenyl)propan-2-yl-amide]-4-phenylbutan-2-yl-amide]semicarbazide] (H-[Abu][azaGly][hPhe][Phe(3-F)]-NH2), the “Inhibition of Cathepsin L (in words)” value is reported as “does not inhibit” and the IC50 (human liver cathepsin L, 10 μM cutoff, read-out: Secondary enzymatic screening (10 μM cutoff or IC50) Cathepsin L) is reported as > 10 µM.

Source: patent US20070155803A1, “Protease inhibitors” (ProZymex A/S, priority 2003, published 2007)
